# Experimental data from a melting point compilation (Tetko et al.).
row,Structure (SMILES),melting point [°C]
1,Nc1cccc(C(=O)N2CCc3ccccc32)c1,125 to 127
2,O=C(O)C1CCN(c2cncc3nnnn23)CC1,159 to 161
3,CCCC(C)C(N)C(=O)O (centres undefined),259 to 261
4,O=C(c1cc(Br)c[nH]1)N1CCCC1,210 to 212
5,Cc1ccc(S(=O)(=O)N(CCC(=O)O)c2ccccc2)cc1,145 to 147
6,Cc1cccc([N+](=O)[O-])c1C(N)=O,158 to 160
7,c1ccc(NCc2cccs2)nc1,76 to 78
8,Cc1nc(-c2cccnc2)nc(Cl)c1C,72 to 74
9,OC1CCCc2nc(-c3ccccc3)sc21 (centres undefined),96 to 98
10,N#Cc1ccc(Oc2ccc(C(=O)O)cc2)nc1,246 to 248
11,Cc1cc(Cl)n2c(nc3ccccc32)c1C#N,210 to 212
12,ClCc1nnc(-c2cc3c(s2)CCCC3)o1,107 to 109
13,Cn1cc(CNc2ccccc2C(F)(F)F)cn1,53 to 55
14,Clc1cn2ccccc2n1,72 to 74
15,Cc1nc(CO)c(C)s1,44 to 46
16,NC(=S)c1ccc(NC(=O)C2CC2)cc1,179 to 181
17,CC1(C2CCNCC2)NC(=O)NC1=O (centres undefined),243 to 245
18,N#CC1CNCCN1Cc1ccccc1 (centres undefined),98 to 100
19,Nc1cccc(Cn2cnnc2)c1,139 to 141
20,CCN(CC)S(=O)(=O)c1ccc(N2CCOCC2)c(C(=O)O)c1,149 to 151
21,CS(=O)(=O)c1ccc(-c2nnc(N)o2)cc1,297 to 299
22,COC(=O)c1cc2ccccc2n1C,69 to 71
23,CC(C)(C(=O)O)S(=O)(=O)c1ccc(Br)cc1,162 to 164

row,Structure (SMILES),melting point [°C]
1,NC(C(=O)O)c1cccs1 (centres undefined),208 to 210
2,CN1CCNc2cccnc21,89 to 91
3,NS(=O)(=O)c1c(Br)cc(F)cc1Br,174 to 176
4,CCC(C)C(NC(N)=O)C(=O)O (centres undefined),205 to 207
5,Oc1ccnc2cc(Cl)c(Br)cc12,369 to 371
6,O=C(O)c1csc(Cc2ccccc2F)n1,154 to 156
7,Cc1cc(NC(=O)CCl)on1,106 to 108
8,CC(=O)c1ccc(Cl)c(S(=O)(=O)Cl)c1,111 to 113
9,OCc1ccc(CCl)cc1,55 to 57
10,CC(c1nnc(S)n1-c1ccc(F)cc1)N(C)C (centres undefined),169 to 171
11,O=C(Cc1cccc2ccccc12)NO,179 to 181
12,O=C(O)c1ccc(S(=O)(=O)C2CCCC2)cc1,199 to 201
13,Cc1cc(C(=O)CCl)c(C)n1-c1ccc(Br)cc1,82 to 84
14,O=c1ccc(-c2cccc([N+](=O)[O-])c2)n[nH]1,274 to 276
15,OCCCc1nc2ncccn2n1,76 to 78
16,CCc1cccc(CC)c1Nc1nnc(S)s1,165 to 167
17,NCc1cc(Br)c2c(c1)OCO2,49 to 51
18,O=C(O)c1ccc(-n2cnnn2)cc1Cl,179 to 181
19,Cc1ccc(C(C)O)cc1[N+](=O)[O-] (centres undefined),48 to 50
20,CC(C)(C)c1nccc(=O)[nH]1,205 to 207
21,CCn1nc(C)c(C(C)=O)c1C,30 to 32
22,O=C(O)c1cccc2cccc(-c3cccc4cccc(C(=O)O)c34)c12,284 to 286
23,Cc1nn(-c2ccccc2)c(N)c1C(F)(F)F,77 to 79

row,Structure (SMILES),melting point [°C]
1,Cc1cc(Oc2ccccc2)ccc1N,60 to 62
2,CCS(=O)(=O)N(C)CC(=O)O,70 to 72
3,NC1CCCCC1O (centres undefined),162 to 164
4,CCNC(=O)CCCl,64 to 66
5,Cc1csc(C(O)(CC(=O)O)C(F)(F)F)n1 (centres undefined),109 to 111
6,O=C1CCNc2ccccc2N1,132 to 134
7,CC(=O)N[C@@H](CC(=O)O)C(N)=O,159 to 161
8,Cc1ccc2cccnc2c1S(=O)(=O)Cl,149 to 151
9,CC(=O)c1cccc(OC(C)C(=O)O)c1 (centres undefined),93 to 95
10,Nc1nc(-c2cc(Br)cs2)cs1,149 to 151
11,CC(=O)Cn1cc(Br)cn1,62 to 64
12,Nc1ccc(Cl)c(CO)n1,147 to 149
13,O=C(O)/C=C/c1ccc(OC(F)F)cc1OC(F)F,106 to 108
14,Cc1ccc(-c2ccc(C=O)o2)cc1,53 to 55
15,O=c1[nH]nc2ccc(Cl)nn12,269 to 271
16,Nc1cccc(CS(=O)C2CCOCC2)c1 (centres undefined),125 to 127
17,N#Cc1c(OCCO)n[nH]c1N,163 to 165
18,NC(=O)c1cc(N)ccc1F,137 to 139
19,CC(=O)NC(CC(=O)O)c1ccc(F)cc1F (centres undefined),149 to 151
20,CS(=O)(=O)c1snc(O)c1C#N,235 to 237
21,CC1=NNC(=O)C1CCN (centres undefined),229 to 231
22,O=C(O)CCC(=O)c1ccc(S(=O)(=O)Cl)cc1,126 to 128
23,CCOC(=O)C(=O)C=Cc1ccsc1,53 to 55

row,Structure (SMILES),melting point [°C]
1,CN(C(=O)c1cccc(C(=O)O)c1)c1ccccc1,170 to 172
2,Cc1cc2c(c(C)c1Cl)C(=O)CCO2,67 to 69
3,Clc1cc(Cl)cc(-c2nnc(Br)s2)c1,154 to 156
4,NC(=S)Cn1ccc(=O)[nH]c1=O,256 to 258
5,Nc1cc(C2CC2)nc2ccc(Cl)cc12,96 to 98
6,Nc1cc(Br)c(S(N)(=O)=O)cc1[N+](=O)[O-],268 to 270
7,O=S(=O)(Cl)c1ccc2nc(Cl)ccc2c1,138 to 140
8,N#Cc1cnn2cc(C=O)cnc12,222 to 224
9,CC(C)(CO)Nc1ccc(Br)cn1,103 to 105
10,CC(=O)NC(C)c1ccc(C(=O)CCl)cc1 (centres undefined),152 to 156
11,CCn1ccnc1C(O)CCc1ccccc1 (centres undefined),77 to 79
12,O=[N+]([O-])c1cccc(F)c1S(=O)(=O)Cl,89 to 91
13,CCc1ccc(-c2csc(N)n2)s1,92 to 94
14,CCCOc1nc2ccccc2cc1/C=C/C(=O)O,159 to 161
15,CC(=O)NCCc1ccc(S(=O)(=O)Cl)cc1,131 to 133
16,O=S(=O)(Cl)Cc1cc(Cl)ccc1F,45 to 47
17,COc1cc(OC)c2ncc(C(=O)O)c(O)c2c1,299 to 301
18,Cc1[nH]c(-c2ncccn2)nc(=O)c1CC(=O)O,194 to 196
19,Nc1ccn(Cc2ccccc2)n1,56 to 58
20,CC(C)c1cc(N)no1,64 to 66
